Results on 16 molecules are retold here after ChEMBL document CHEMBL2413014, “Imidazolium-based warheads strongly influence activity of water-soluble peptidic transglutaminase inhibitors” (Eur J Med Chem, 2013).

The target in data set [1] is T1, Coagulation factor XIII A chain (Homo sapiens, UniProt P00488).
T1 sequence (P00488 whole entry): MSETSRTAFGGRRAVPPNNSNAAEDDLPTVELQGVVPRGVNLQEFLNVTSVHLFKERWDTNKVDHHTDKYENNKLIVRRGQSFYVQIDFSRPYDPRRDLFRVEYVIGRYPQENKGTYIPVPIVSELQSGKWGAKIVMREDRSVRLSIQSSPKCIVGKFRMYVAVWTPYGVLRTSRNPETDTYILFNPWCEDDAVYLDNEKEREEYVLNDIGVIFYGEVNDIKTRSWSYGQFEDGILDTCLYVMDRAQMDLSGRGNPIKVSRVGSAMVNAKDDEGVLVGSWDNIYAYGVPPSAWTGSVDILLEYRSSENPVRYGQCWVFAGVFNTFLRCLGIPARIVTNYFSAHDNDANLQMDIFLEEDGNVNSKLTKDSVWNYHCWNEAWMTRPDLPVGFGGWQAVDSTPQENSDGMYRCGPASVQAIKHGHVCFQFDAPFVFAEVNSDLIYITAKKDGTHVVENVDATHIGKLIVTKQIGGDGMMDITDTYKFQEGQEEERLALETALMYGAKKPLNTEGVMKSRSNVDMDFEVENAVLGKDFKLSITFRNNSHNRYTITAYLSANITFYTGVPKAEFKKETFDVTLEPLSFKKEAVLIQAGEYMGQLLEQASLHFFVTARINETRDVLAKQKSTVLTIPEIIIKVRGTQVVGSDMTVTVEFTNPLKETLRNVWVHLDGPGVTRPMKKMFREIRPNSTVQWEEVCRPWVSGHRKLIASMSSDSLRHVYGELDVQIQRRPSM
The experiment in a line: Inhibition of recombinant human F13a-mediated biotin X-cadaverine incorporation into N,N'-dimethylcasein after 1 hr.

Data set [2] concerns the target T2, Protein-glutamine gamma-glutamyltransferase (Homo sapiens, UniProt P21980).
T2 sequence (P21980 whole entry): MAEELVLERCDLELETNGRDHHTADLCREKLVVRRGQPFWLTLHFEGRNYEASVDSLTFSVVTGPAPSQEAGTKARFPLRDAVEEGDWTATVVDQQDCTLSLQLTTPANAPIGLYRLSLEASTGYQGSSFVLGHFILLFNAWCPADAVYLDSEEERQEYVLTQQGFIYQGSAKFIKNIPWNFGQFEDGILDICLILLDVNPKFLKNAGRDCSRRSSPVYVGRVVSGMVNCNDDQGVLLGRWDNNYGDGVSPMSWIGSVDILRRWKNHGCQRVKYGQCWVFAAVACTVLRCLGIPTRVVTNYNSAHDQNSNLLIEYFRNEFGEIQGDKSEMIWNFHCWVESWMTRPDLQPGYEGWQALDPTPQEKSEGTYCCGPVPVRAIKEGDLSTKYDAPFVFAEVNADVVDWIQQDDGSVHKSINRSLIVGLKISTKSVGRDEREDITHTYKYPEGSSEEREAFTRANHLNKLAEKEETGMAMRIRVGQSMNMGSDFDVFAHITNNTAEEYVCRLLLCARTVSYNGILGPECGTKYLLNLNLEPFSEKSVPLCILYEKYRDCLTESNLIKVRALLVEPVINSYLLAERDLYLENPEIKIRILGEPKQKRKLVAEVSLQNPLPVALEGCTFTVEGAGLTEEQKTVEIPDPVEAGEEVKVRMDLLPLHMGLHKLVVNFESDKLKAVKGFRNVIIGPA
The experiment in a line: Inhibition of recombinant human tissue transglutaminase-mediated biotin X-cadaverine incorporation into N,N'-dimethylcasein after 1 hr.

The next data set deals with NIH3T3. The experiment in a line: Cytotoxicity against Swiss mouse 3T3 cells up to 250 uM after 72 hrs. The class given is cell-based. The following applies: nih3t3, 72 h.

Each structure is given as a SMILES string. Bounds are passed on as bounds.

Turning to `CCn1c(C)c(C)[n+](CC)c1SCC(=O)CC[C@H](NC(=O)[C@H](Cc1ccccc1)NC(=O)OCc1ccccc1)C(=O)O`, the IC50 is 50 µM in data set [1] and > 200 µM in data set [2].
As to `Cc1c(C)[n+](C)c(SCC(=O)CC[C@H](NC(=O)CNC(=O)OCc2ccccc2)C(=O)O)n1-c1ccccc1`, the IC50 in data set [1] and in data set [2] was > 200 µM each time.
In the case of `CC[S+](CC)CC(=O)CC[C@H](NC(=O)CNC(=O)OCc1ccccc1)C(=O)O`, the IC50 in data set [1] was > 200 µM; in data set [2], 20 µM.
Regarding `Cc1c(C)[n+](C)c(SCC(=O)CC[C@H](NC(=O)[C@H](Cc2ccccc2)NC(=O)OCc2ccccc2)C(=O)O)n1C.[Br-]`, the Activity result in the data set on NIH3T3 is reported as “Non-toxic”. The figures for the IC50 in data set [1] and in data set [2] were 5 µM and 3 µM, respectively.
As for `CCn1c(C)c(C)[n+](CC)c1SCC(=O)CC[C@H](NC(=O)CNC(=O)OCc1ccccc1)C(=O)O`, the IC50 in data set [1] and in data set [2] was > 200 µM throughout.
As for `Cc1c(C)[n+](C)c(SCC(=O)CC[C@H](NC(=O)[C@H](Cc2ccccc2)NC(=O)OCc2ccccc2)C(=O)O)n1Cc1ccccc1`, the IC50 in data set [1] and in data set [2] was > 200 µM each time.
In the case of `CCCc1c(CCC)[n+](C)c(SCC(=O)CC[C@H](NC(=O)[C@H](Cc2ccccc2)NC(=O)OCc2ccccc2)C(=O)O)n1C`, the IC50 in data set [1] was 10 µM; in data set [2] it was 5 µM.
For `CCC[n+]1c(C)c(C)n(C)c1SCC(=O)CC[C@H](NC(=O)[C@H](Cc1ccccc1)NC(=O)OCc1ccccc1)C(=O)O`, the IC50 in data set [1] and in data set [2] was > 200 µM in each case.
For the molecule `C[S+](C)CC(=O)CC[C@H](NC(=O)[C@H](Cc1ccccc1)NC(=O)OCc1ccccc1)C(=O)O`, the figures for the IC50 in data set [1] and in data set [2] were 105 µM and 10 µM, respectively.
As for `Cc1c(C)[n+](C)c(SCC(=O)CC[C@H](NC(=O)CNC(=O)OCc2ccccc2)C(=O)O)n1C`, the figures for the IC50 in data set [1] and in data set [2] were 2 µM and 1 µM, respectively.
For `C[S+](C)CC(=O)CC[C@H](NC(=O)CNC(=O)OCc1ccccc1)C(=O)O` the same measures were > 200 µM and 8 µM.
Taken in the same sequence, the figures for `Cc1c(C)[n+](C)c(SCC(=O)CC[C@H](NC(=O)CNC(=O)OCc2ccccc2)C(=O)O)n1Cc1ccccc1` were > 200 µM and > 200 µM.
Taken in the same sequence, the figures for `CC[S+](CC)CC(=O)CC[C@H](NC(=O)[C@H](Cc1ccccc1)NC(=O)OCc1ccccc1)C(=O)O` were > 200 µM and 20 µM.
As for `CCCc1c(CCC)[n+](C)c(SCC(=O)CC[C@H](NC(=O)CNC(=O)OCc2ccccc2)C(=O)O)n1C`, the values for the IC50 in data set [1] and in data set [2] were 20 µM and 10 µM, respectively.
Taken in the same sequence, the figures for `Cc1c(C)[n+](C)c(SCC(=O)CC[C@H](NC(=O)[C@H](Cc2ccccc2)NC(=O)OCc2ccccc2)C(=O)O)n1-c1ccccc1` were > 200 µM and > 200 µM.
For `CCC[n+]1c(C)c(C)n(C)c1SCC(=O)CC[C@H](NC(=O)CNC(=O)OCc1ccccc1)C(=O)O` the same measures were 30 µM and > 200 µM.

As usually defined, the IC50 is the concentration that inhibits the measured activity by half.
